# Data taken from BindingDB's records for doi:10.7270/Q2736PC9 (Broad Institute, 2010).
# Molecular target: T1, Alkanal monooxygenase alpha chain (Vibrio harveyi, UniProt P07740)
# T1 sequence (P07740 whole entry): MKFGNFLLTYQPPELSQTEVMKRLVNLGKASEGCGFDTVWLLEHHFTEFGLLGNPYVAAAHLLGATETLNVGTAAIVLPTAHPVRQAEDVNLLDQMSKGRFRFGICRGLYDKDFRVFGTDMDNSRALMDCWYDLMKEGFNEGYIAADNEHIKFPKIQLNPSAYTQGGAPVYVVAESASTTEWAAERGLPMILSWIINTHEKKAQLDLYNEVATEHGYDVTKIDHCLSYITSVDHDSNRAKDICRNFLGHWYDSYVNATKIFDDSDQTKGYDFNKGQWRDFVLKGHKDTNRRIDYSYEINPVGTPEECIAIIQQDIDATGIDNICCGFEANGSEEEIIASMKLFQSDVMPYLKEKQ
# Experiment: bacterial growth suppression, V. harveyi – absorbance, counter-screen for quorum sensing inhibitor project, dose response (AID 434943)
row,SMILES,EC50 [µM]
1,CCc1ccc(S(=O)(=O)Nc2ccc(Br)cn2)cc1 [MLS001211346],> 160
2,CN(C)S(=O)(=O)c1ccc(NC(=S)NC(=O)Cc2ccccc2)cc1 [N-[[4-(dimethylsulfamoyl)phenyl]carbamothioyl]-2-phenyl-ethanamide],> 160
3,COc1cc(NC(=O)CN2C(=O)NC(c3ccccc3)(c3ccccc3)C2=O)cc(OC)c1 [MLS001176525],> 160
4,CCCc1ccc(S(=O)(=O)N(C)S(=O)(=O)c2ccc(F)cc2)cc1 [N-(4-fluorophenyl)sulfonyl-N-methyl-4-propylbenzenesulfonamide],> 160
5,C=Cn1c(C(=O)O)ccc1-c1ccc(CC)cc1,> 160

# Now from value to compound:
row,EC50 [µM],SMILES
1,> 160,Cc1cccc(NS(=O)(=O)c2ccc(Oc3ccccc3)cc2)n1 [SMR000071466]
2,> 160,Cn1cnc(S(=O)(=O)Nc2ccc(OC(F)(F)F)cc2)c1 [SMR000314513]
